Measurements from US20240309018A1, “THIAZOLE-LACTAM-SPIROHETEROCYCLIC COMPOUNDS AND APPLICATIONS THEREOF” (D3 BIO (WUXI) CO., LTD, priority 2021, published 2024).

What was measured:
[1] = Solid stability test of the crystal form; type: physicochemical
Method: The sample was placed at the bottom of an HPLC vial to form a thin layer. The samples were placed in a chamber at a constant temperature and humidity of 60° C./75% RH conditions and in a 92.5% RH desiccator. The bottles were sealed with a sealing film. Some small holes were punched in the sealing film to ensure that the samples were fully in contact with the ambient air. The caps of the sample bottles placed at 60° C. under light and light-shielding conditions (samples under light-shielding conditions were wrapped in tin foil) were tighten.

[2] = Hygroscopicity study (DVS); type: physicochemical; details: 25° C. and 80% RH
Method: Dynamic vapor adsorption (DVS) curves were collected on DVS Intrinsic plus of Surface Measurement Systems (SMS) company. The relative humidity at 25° C. was corrected with the deliquescent points of LiCl, Mg(NO3)2 and KCl.
[…]

Cc1cccc(CN2C(=O)c3nc(-c4nc(Nc5ccnn5C)ncc4C)sc3C23COC3)n1 [crystal form A of WX001]
Crystal form ([1]; 0 day): Crystal form A | Crystal form ([1]; 60° C., 5 days): Crystal form A | Crystal form ([1]; 60° C., 10 days): Crystal form A | Crystal form ([1]; 60° C./75% RH, 1 month): Crystal form A | Crystal form ([1]; 60° C./75% RH, 2 months): Crystal form A | Crystal form ([1]; 60° C./75% RH, 3 months): Crystal form A | Crystal form ([1]; 92.5% RH, 5 days): Crystal form A | Crystal form ([1]; 92.5% RH, 10 days): Crystal form A | Crystal form ([1]; Control group of light-shielding, taking points simultaneously with visible light + UV group): Crystal form A | Crystal form ([1]; Control group of light-shielding, taking points simultaneously with visible light group): Crystal form A | Crystal form ([1]; Visible light (ICH conditions), reaching illumination of 1.2E+06 Lux · hrs): Crystal form A | Crystal form ([1]; Visible light + UV (ICH conditions), reaching illumination of 200 W · hrs/m^2): Crystal form A | solid stability, conclusion ([1]; all conditions of Table 15): good stability | hygroscopicity classification [2]: almost no hygroscopicity | ΔW, weight increase by moisture absorption ([2]; DVS): 0.1134%
